# Measured values published in PubChem BioAssay AID1963860 (Molecular Pharmacology Branch, DTP, NCI, 2024).
# pIC50: −log10 of the molar value.
# Tested on: CN0375-F725-PDC KRAS spheroid viability
# Assay: Anticancer human tumor CN0375-F725-PDC patient-derived colon carcinoma cell line growth inhibition [KRAS2]
# Details: spheroids with HUVEC and MSC; for pIC50: curve of first compound; for viability, T/C: stronger effect = lower value
# Outline: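 Combination screen of spheroid viability in tumor-cell co-cultures with endothelial (HUVEC) and mesenchymal stem cell stroma. Each agent was tested in half-log dilutions, topping at clinical Cmax or at 10 microM without a known Cmax.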
# [1] = second compound 0.0316 µM, first compound 0.000316 µM
# [2] = second compound 0.0316 µM, first compound 0.001 µM
# [3] = second compound 0.0316 µM, first compound 0.00316 µM
# [4] = second compound 0.0316 µM, first compound 0.01 µM
# [5] = second compound 0.0316 µM, first compound 0.0316 µM
# [6] = second compound 0.1 µM, first compound 0.000316 µM
# [7] = second compound 0.1 µM, first compound 0.001 µM
# [8] = second compound 0.1 µM, first compound 0.00316 µM
# [9] = second compound 0.1 µM, first compound 0.01 µM
# [10] = second compound 0.1 µM, first compound 0.0316 µM
# [11] = second compound 0.316 µM, first compound 0.000316 µM
# [12] = second compound 0.316 µM, first compound 0.001 µM
# [13] = second compound 0.316 µM, first compound 0.00316 µM
# [14] = second compound 0.316 µM, first compound 0.01 µM
# [15] = second compound 0.316 µM, first compound 0.0316 µM
# [16] = second compound 1 µM, first compound 0.000316 µM
# [17] = second compound 1 µM, first compound 0.001 µM
# [18] = second compound 1 µM, first compound 0.00316 µM
# [19] = second compound 1 µM, first compound 0.01 µM
# [20] = second compound 1 µM, first compound 0.0316 µM
# [21] = second compound 3.16 µM, first compound 0.000316 µM
# [22] = second compound 3.16 µM, first compound 0.001 µM
# [23] = second compound 3.16 µM, first compound 0.00316 µM
# [24] = second compound 3.16 µM, first compound 0.01 µM
# [25] = second compound 3.16 µM, first compound 0.0316 µM
# [26] = second compound 0.0316 µM, first compound 0.1 µM
# [27] = second compound 0.1 µM, first compound 0.1 µM
# [28] = second compound 0.316 µM, first compound 0.1 µM
# [29] = second compound 1 µM, first compound 0.1 µM
# [30] = second compound 3.16 µM, first compound 0.1 µM
# [31] = second compound 0.0316 µM, first compound 0.316 µM
# [32] = second compound 0.0316 µM, first compound 1 µM
# [33] = second compound 0.0316 µM, first compound 3.16 µM
# [34] = second compound 0.0316 µM, first compound 10 µM
# [35] = second compound 0.1 µM, first compound 0.316 µM
# [36] = second compound 0.1 µM, first compound 1 µM
# [37] = second compound 0.1 µM, first compound 3.16 µM
# [38] = second compound 0.1 µM, first compound 10 µM
# [39] = second compound 0.316 µM, first compound 0.316 µM
# [40] = second compound 0.316 µM, first compound 1 µM
# [41] = second compound 0.316 µM, first compound 3.16 µM
# [42] = second compound 0.316 µM, first compound 10 µM
# [43] = second compound 1 µM, first compound 0.316 µM
# [44] = second compound 1 µM, first compound 1 µM
# [45] = second compound 1 µM, first compound 3.16 µM
# [46] = second compound 1 µM, first compound 10 µM
# [47] = second compound 3.16 µM, first compound 0.316 µM
# [48] = second compound 3.16 µM, first compound 1 µM
# [49] = second compound 3.16 µM, first compound 3.16 µM
# [50] = second compound 3.16 µM, first compound 10 µM
# 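Also: spheroids exposed to agents for 7 days.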
smiles,measurement,setting,value
CC(=O)Nc1cccc(-n2c(=O)n(C3CC3)c(=O)c3c(Nc4ccc(I)cc4F)n(C)c(=O)c(C)c32)c1 + C=CC(=O)N1CCN(c2nc(OCC3CCCN3C)nc3c2CCN(c2cccc4cccc(C)c24)C3)CC1CC#N,pIC50,second compound 0.0316 µM,8.25
same,pIC50,second compound 0.1 µM,8.31
same,pIC50,second compound 0.316 µM,8.50
same,pIC50,second compound 1 µM,8.79
same,pIC50,second compound 3.16 µM,> 10.00
same,"viability, T/C","second compound 0.0316 µM, first compound 0.0001 µM",91%
same,"viability, T/C",[1],85.7%
same,"viability, T/C",[2],67.1%
same,"viability, T/C",[3],53.3%
same,"viability, T/C",[4],48.6%
same,"viability, T/C",[5],33.9%
same,"viability, T/C","second compound 0.1 µM, first compound 0.0001 µM",92.3%
same,"viability, T/C",[6],86%
same,"viability, T/C",[7],66.2%
same,"viability, T/C",[8],54.2%
same,"viability, T/C",[9],44.5%
same,"viability, T/C",[10],30.7%
same,"viability, T/C","second compound 0.316 µM, first compound 0.0001 µM",86.8%
same,"viability, T/C",[11],77.7%
same,"viability, T/C",[12],61.6%
same,"viability, T/C",[13],50.8%
same,"viability, T/C",[14],38.3%
same,"viability, T/C",[15],28.1%
same,"viability, T/C","second compound 1 µM, first compound 0.0001 µM",81.9%
same,"viability, T/C",[16],73.1%
same,"viability, T/C",[17],53.7%
same,"viability, T/C",[18],41.2%
same,"viability, T/C",[19],35.7%
same,"viability, T/C",[20],25.3%
same,"viability, T/C","second compound 3.16 µM, first compound 0.0001 µM",19.1%
same,"viability, T/C",[21],20.7%
same,"viability, T/C",[22],9.33%
same,"viability, T/C",[23],12.7%
same,"viability, T/C",[24],1.9%
same,"viability, T/C",[25],7.1%
CC(C)n1nc(-c2ccc3oc(N)nc3c2)c2c(N)ncnc21 + C=CC(=O)N1CCN(c2nc(OCC3CCCN3C)nc3c2CCN(c2cccc4cccc(C)c24)C3)CC1CC#N,pIC50,second compound 0.0316 µM,7.27
same,pIC50,second compound 0.1 µM,7.41
same,pIC50,second compound 0.316 µM,7.25
same,pIC50,second compound 1 µM,7.37
same,pIC50,second compound 3.16 µM,> 9.50
same,"viability, T/C",[1],106%
same,"viability, T/C",[2],96.5%
same,"viability, T/C",[3],76.8%
same,"viability, T/C",[4],70.1%
same,"viability, T/C",[5],57.5%
same,"viability, T/C",[26],42.4%
same,"viability, T/C",[6],103%
same,"viability, T/C",[7],95.2%
same,"viability, T/C",[8],78.8%
same,"viability, T/C",[9],63.8%
same,"viability, T/C",[10],51.9%
same,"viability, T/C",[27],43.9%
same,"viability, T/C",[11],103%
same,"viability, T/C",[12],98%
same,"viability, T/C",[13],78.3%
same,"viability, T/C",[14],63.7%
same,"viability, T/C",[15],56.6%
same,"viability, T/C",[28],45%
same,"viability, T/C",[16],87.4%
same,"viability, T/C",[17],91.2%
same,"viability, T/C",[18],75.1%
same,"viability, T/C",[19],60%
same,"viability, T/C",[20],53.2%
same,"viability, T/C",[29],46.1%
same,"viability, T/C",[21],37.8%
same,"viability, T/C",[22],11.5%
same,"viability, T/C",[23],31.4%
same,"viability, T/C",[24],1.09%
same,"viability, T/C",[25],11.5%
same,"viability, T/C",[30],8.34%
COc1cc(Nc2ncc3c(n2)-c2ccc(Cl)cc2C(c2c(F)cccc2OC)=NC3)ccc1C(=O)O + C=CC(=O)N1CCN(c2nc(OCC3CCCN3C)nc3c2CCN(c2cccc4cccc(C)c24)C3)CC1CC#N,pIC50,second compound 0.0316 µM,< 5.00
same,pIC50,second compound 0.1 µM,< 5.00
same,pIC50,second compound 0.316 µM,< 5.00
same,pIC50,second compound 1 µM,< 5.00
same,pIC50,second compound 3.16 µM,> 7.50
same,"viability, T/C",[5],96.6%
same,"viability, T/C",[26],108%
same,"viability, T/C",[31],91.8%
same,"viability, T/C",[32],95%
same,"viability, T/C",[33],93.9%
same,"viability, T/C",[34],74.9%
same,"viability, T/C",[10],109%
same,"viability, T/C",[27],105%
same,"viability, T/C",[35],91.3%
same,"viability, T/C",[36],92.5%
same,"viability, T/C",[37],95.9%
same,"viability, T/C",[38],79.3%
same,"viability, T/C",[15],103%
same,"viability, T/C",[28],101%
same,"viability, T/C",[39],94.8%
same,"viability, T/C",[40],91.8%
same,"viability, T/C",[41],88%
same,"viability, T/C",[42],75.7%
same,"viability, T/C",[20],88.3%
same,"viability, T/C",[29],90.8%
same,"viability, T/C",[43],82.9%
same,"viability, T/C",[44],83.2%
same,"viability, T/C",[45],83.9%
same,"viability, T/C",[46],73.8%
same,"viability, T/C",[25],16.5%
same,"viability, T/C",[30],23%
same,"viability, T/C",[47],14%
same,"viability, T/C",[48],44.8%
same,"viability, T/C",[49],42.3%
same,"viability, T/C",[50],22.3%
COc1cc2nccc(Oc3ccc(NC(=O)C4(C(=O)Nc5ccc(F)cc5)CC4)cc3)c2cc1OC + C=CC(=O)N1CCN(c2nc(OCC3CCCN3C)nc3c2CCN(c2cccc4cccc(C)c24)C3)CC1CC#N,pIC50,second compound 0.0316 µM,< 5.00
same,pIC50,second compound 0.1 µM,< 5.00
same,pIC50,second compound 0.316 µM,< 5.00
same,pIC50,second compound 1 µM,5.72
same,pIC50,second compound 3.16 µM,> 7.50
same,"viability, T/C",[5],106%
same,"viability, T/C",[26],100%
same,"viability, T/C",[31],91.3%
same,"viability, T/C",[32],85.9%
same,"viability, T/C",[33],61.1%
same,"viability, T/C",[34],69.8%
same,"viability, T/C",[10],101%
same,"viability, T/C",[27],101%
same,"viability, T/C",[35],92.6%
same,"viability, T/C",[36],83.2%
same,"viability, T/C",[37],53.8%
same,"viability, T/C",[38],68.9%
same,"viability, T/C",[15],96.6%
same,"viability, T/C",[28],100%
same,"viability, T/C",[39],85.9%
same,"viability, T/C",[40],80.7%
same,"viability, T/C",[41],56.9%
same,"viability, T/C",[42],52.8%
same,"viability, T/C",[20],95.5%
same,"viability, T/C",[29],92%
same,"viability, T/C",[43],90.7%
same,"viability, T/C",[44],75.7%
same,"viability, T/C",[45],29.9%
same,"viability, T/C",[46],9.59%
same,"viability, T/C",[25],14.4%
same,"viability, T/C",[30],18.7%
same,"viability, T/C",[47],3.2%
same,"viability, T/C",[48],0.26%
same,"viability, T/C",[49],0.13%
same,"viability, T/C",[50],0.17%
